Laboratory results from patent publication US20240376114A1, “NUCLEAR TRANSPORT MODULATORS AND USES THEREOF” (Karyopharm Therapeutics Inc., priority 2011, published 2024).
Counter-ions that a name gives are not always drawn.

Legend:
[1] = target: T1, CRM1 (Homo sapiens (Human), UniProt O14980); assay: RevGFP assay: inhibition of CRM1-mediated nuclear export; assay type: cell-based; details: U2OS-RevGFP cells, about 1 hr incubation; read-out: Rev Export [IC50]
Procedure: The ability of exemplary compounds of the invention to inhibit CRM1-mediated nuclear export was assessed in a RevGFP assay. Rev is a protein from human immunodeficiency virus type 1 (HIV-1) and contains a nuclear export signal (NES) in its C-terminal domain and a nuclear localization signal (NLS) in its N-terminal domain. Nuclear export of Rev protein is dependent on the classical NES/CRM1 pathway (Neville et al. 1997).
In this assay, U2OS-RevGFP cells were seeded onto clear-bottomed, black, 384-well plates the day before the experiment. Compounds were serially diluted 1:2 in DMEM, starting from 40 μM in a separate, 384-well plate, and then transferred onto the cells. The cells were incubated with compound for about 1 hr before fixation with 3.7% formaldehyde and nuclei staining with Hoechst 33258. The amount of GFP in cell nuclei was measured and the IC50 of each compound was determined (Kau et al. 2003). […]

[2] = CellTiter 96 AQueous One Solution (MTS) cell proliferation assay; assay type: cell-based; details: human, MM.1S multiple myeloma cells; MM.1S cells, 72 h treatment; read-out: Cytotoxicity [EC50]
From the text: The CellTiter 96® AQueous One Solution cell proliferation assay (Promega) was used on MM.1S multiple myeloma cell line to study the cytotoxic and cytostatic properties of the compounds. The assay is based on the cleavage of the tetrazolium salt, MTS, in the presence of an electron-coupling reagent PES (phenazine ethosulfate). The MTS tetrazolium compound is bioreduced by cells into a colored formazan product that is soluble in tissue culture medium. This conversion is presumably accomplished by NADPH or NADH produced by dehydrogenase enzymes in metabolically active cells. Assays are performed by adding a small amount of the CellTiter 96® AQueous One solution reagent directly to culture wells, incubating for 1-4 hours and then recording the absorbance at 490 nm with a 96-well plate reader.
The cells were seeded at 5×10^3 to 1.5×10^4 cells (depending on cell type) in each well of a 96-well plate in 100 μL of fresh culture medium and adherent cells were allowed to attach overnight. The stock solutions of the compounds were diluted in cell culture medium to obtain eight concentrations of each drug, ranging from 1 nM to 30 μM and DMSO at less than 1% v/v was used as a negative control. The resulting drug solutions were transferred onto the cells. After 72 h of treatment, 20 μl of CellTiter 96® AQueous reagent was added into each well of the 96-well assay plates and the plate was incubated at 37° C. for 1-4 hours in a humidified, 5% CO2 atmosphere. Then the absorbance of each well was recorded at 490 nm using a 96-well plate reader. In most cases, the assay was performed in triplicate and the results were presented as half maximal inhibitory concentration (IC50). Optical density versus compound concentration was plotted and analyzed using non-linear regression equations (IDBS XLfit) and the IC50 for each compound was calculated.

[3] = target: T1, CRM1; assay: Immunofluorescence of p21 and p53 localization in HCT-116 cells; assay type: cell-based; details: 10 μM, 24 hours
Procedure: HCT-116 cells were incubated with 10 μM Compound 1 for 24 hours, at which time the cells were fixed and stained with antibodies to p21 or p53, or the DNA stain, DAPI.

[4] = system: HCT-116 cells; assay: Immunofluorescence of pRb localization in HCT-116 cells; assay type: cell-based; details: 10 μM, 24 hours
Procedure: HCT-116 cells were incubated with 10 μM Compound 1 for 24 hours, at which time the cells were fixed and stained with antibodies to pRb or DAPI.

[5] = Brain to plasma (B:P) ratio determination; assay type: in vivo; details: brain and plasma; mouse, PO at 10 mg/kg, 2 hours post-dose
From the text: The brain to plasma (B:P) ratio is one method of quantifying the relative distribution of a therapeutic agent in brain tissue to that in circulation and, as such, provides one indication of the brain penetration of a given therapeutic agent. A high brain to plasma ratio is preferred when targeting diseases localized in the central nervous system (CNS), including the brain and the cerebrospinal fluid. However, a lower brain to plasma ratio is generally preferable for non-CNS therapeutic agents to minimize brain penetration and avoid potential side effects caused by unwanted accumulation of the therapeutic agents in the brain and CNS tissue.
Brain to Plasma (B:P) Ratio. […] Following collection, brain tissue was rinsed with cold saline, dried on filter paper, weighed and snap-frozen by placing on dry ice. All samples were stored frozen at approximately −80° C. until analysis. […] Plasma samples were treated with the identical method (except homogenization step) and the concentration of compound in each matrix was calculated based on generated standard curves.

[6] = Pharmacokinetic (PK) assay, plasma AUC; assay type: in vivo; details: 10 mg/kg, mouse, PO, 10 mpk, read-out: AUCInf hr * ng/mL (mouse, PO, 10 mpk)
Procedure: Pharmacokinetics (PK) play an increasing role in drug discovery and development. Pharmacokinetics is the quantitative study of the time course of drug absorption, distribution, metabolism and/or excretion. When a drug is administered, it distributes rapidly from its administration site into the systemic blood circulation. One measure of the extent of a therapeutic agent's distribution is the area under the plasma concentration-time curve (AUC), calculated to the last measured concentration (AUCt) and extrapolated to infinity (AUCinf). AUC is thus a useful metric to quantitate drug exposure. AUC. Blood was collected from mice (N=3) to contribute to the total of 10 time points (pre-dose, 5 min, 15 min, 30 min, 1 hour, 2 hours, 4 hours, 8 hours, 12 hours and 24 hours post dose). Mice were bled on a rotating basis, each mouse contributing 3 time points to the blood collection. At the designated time points, animals were anaesthetized under isoflurane, and approximately 110 μL of blood per time point was collected via retro-orbital puncture into pre-cooled K2EDTA (anti-coagulant) tubes. Blood samples were put on wet ice and centrifuged (2000 g, 5 min at 4° C.) to obtain plasma within 30 minutes of sample collection. All samples were stored frozen at approximately −80° C. until analysis. Prior to analysis, samples were mixed with internal standard (dexamethasone) in acetonitrile, vortexed, centrifuged, and supernatant was injected for analysis. Concentration of compounds in plasma was determined using LC-MS-MS instrumentation (API 4000, Triple Quadruple with electrospray ionization; Acuity Ultra Performance Liquid Chromatography column C18, with MeOH and formic acid as organic solvents). AUC values were calculated using WinNonlin Professional 6.2 software package, non-compartmental pharmacokinetic model NCA200.

[7] = system: HCT-116 cells; assay: Western blot of pRb and phosphorylated pRb in HCT-116 cells; assay type: cell-based; details: 10 μM, more than 6 hours
Procedure: HCT-116 cells were incubated with 10 μM Compound 1 for 2, 4, 6, 16, or 24 hours (indicated in FIGS. 3A and 3B as “2+,” 4+,” etc.), or with 10 μM Compound 1 for 22 hours and an additional 1 μM Compound 1 for another 2 hours (indicated in FIGS. 3A and 3B as “22+2+”). At the end of the incubation period, total protein extracts were prepared. Cytoplasmic and nuclear proteins were separated, immunoblotted and reacted with antibodies to phosphorylated pRb (pRb^phos), pRb, actin and lamin B.

[8] = system: HCT-116 cells; assay: Immunofluorescence of APC and IκB localization in HCT-116 cells; assay type: cell-based; details: 10 μM, 24 hours
Procedure: HCT-116 cells were incubated with 10 μM Compound 1 for 24 hours, at which time the cells were fixed and stained with antibodies to APC or IκB, or DAPI.

[9] = system: splenocytes and circulating CD8 cells; assay: FACS of immune cells at day 26 of the EAE model; assay type: in vivo, mouse; details: day 26, high dose (75 mg/kg)
From the text: On day 26, a subset of mice was sacrificed and immune cells were subjected to fluorescence-activated cell sorting (FACS) using standard methods.

[10] = system: EAE model of multiple sclerosis; details: 25 mg/kg and 75 mg/kg, oral gavage, 3 days per week
[11] = system: HCT-116 xenografts; assay: Inhibition of HCT-116 xenografts in vivo
Procedure: Mice were inoculated on the hind flank with HCT-116 cell line and the HCT-116 xenografts were grown to approximately 150 mm^3, at which time treatment was initiated. Treatment groups were as follows:
50 mg/kg 5-FU IP, days 1-3;
25 mg/kg Compound 1 compound QD×5 SC (low dose);
75 mg/kg Compound 1 compound QD×5 SC (high dose).

[12] = system: HCT-116 cells; assay: Western blot of p53, p21, PARP in cytoplasmic and nuclear fractions of HCT-116 cells; assay type: cell-based; details: 10 μM
Procedure: HCT-116 cells were incubated with 10 μM Compound 1 for 2, 4, 6, 16, or 24 hours (indicated in FIGS. 2A and 2B as “2+,” 4+,” etc.), or with 10 μM Compound 1 for 22 hours and an additional 1 μM Compound 1 for another 2 hours (indicated in FIGS. 2A and 2B as “22+2+”). At the end of the incubation period, total protein extracts were prepared. Cytoplasmic and nuclear proteins were separated, immunoblotted and reacted with antibodies to p53, p21, full-length (FL) PARP, cleaved PARP and lamin B.

T1 sequence (O14980 whole entry, the tested form may be a part): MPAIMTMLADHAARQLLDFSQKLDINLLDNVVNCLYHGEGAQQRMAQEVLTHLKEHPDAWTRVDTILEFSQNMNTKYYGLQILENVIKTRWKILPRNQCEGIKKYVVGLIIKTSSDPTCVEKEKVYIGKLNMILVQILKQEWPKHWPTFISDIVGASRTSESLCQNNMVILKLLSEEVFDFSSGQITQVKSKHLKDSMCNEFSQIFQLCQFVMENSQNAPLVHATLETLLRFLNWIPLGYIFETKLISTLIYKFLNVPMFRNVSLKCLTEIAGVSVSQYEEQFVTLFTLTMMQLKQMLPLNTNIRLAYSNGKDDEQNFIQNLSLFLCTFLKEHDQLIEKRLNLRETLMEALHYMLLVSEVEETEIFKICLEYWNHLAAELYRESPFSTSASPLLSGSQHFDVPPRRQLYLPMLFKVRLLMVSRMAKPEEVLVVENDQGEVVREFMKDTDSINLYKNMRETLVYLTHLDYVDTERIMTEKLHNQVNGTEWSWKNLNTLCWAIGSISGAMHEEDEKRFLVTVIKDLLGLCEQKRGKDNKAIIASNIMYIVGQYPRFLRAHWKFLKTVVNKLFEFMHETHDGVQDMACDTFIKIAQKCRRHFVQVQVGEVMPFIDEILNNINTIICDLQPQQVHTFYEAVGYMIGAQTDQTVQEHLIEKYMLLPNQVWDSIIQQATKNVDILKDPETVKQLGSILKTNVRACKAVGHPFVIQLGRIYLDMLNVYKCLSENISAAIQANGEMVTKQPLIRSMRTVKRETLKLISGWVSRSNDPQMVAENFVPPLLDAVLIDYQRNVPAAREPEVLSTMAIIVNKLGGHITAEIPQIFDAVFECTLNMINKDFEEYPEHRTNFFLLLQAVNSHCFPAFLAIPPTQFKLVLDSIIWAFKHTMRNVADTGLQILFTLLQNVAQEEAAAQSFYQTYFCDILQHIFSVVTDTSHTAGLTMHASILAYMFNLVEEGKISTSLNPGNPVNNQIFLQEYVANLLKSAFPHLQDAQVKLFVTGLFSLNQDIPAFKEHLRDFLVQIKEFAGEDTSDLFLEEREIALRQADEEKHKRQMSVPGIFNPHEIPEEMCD

## O=C(/C=C/n1cnc(-c2cc(C(F)(F)F)cc(C(F)(F)F)c2)n1)N1CC(F)(F)C1 [Compound 4, (E)-3-(3-(3,5-bis(trifluoromethyl)phenyl)-1H-1,2,4-triazol-1-yl)-1-(3,3-difluoroazetidin-1-yl)prop-2-en-1-one]
[1]
  IC50: < 1000 nM
[2]
  EC50 at 72 h: < 1000 nM

## O=C(/C=C\n1cnc(-c2cc(C(F)(F)F)cc(C(F)(F)F)c2)n1)N1CC(F)(F)C1 [Compound 1, (Z)-3-(3-(3,5-bis(trifluoromethyl)phenyl)-1H-1,2,4-triazol-1-yl)-1-(3,3-difluoroazetidin-1-yl)prop-2-en-1-one]
[3]
  Nuclear export function of CRM1: inhibited the nuclear export function of CRM1
  Subcellular localization of p21 and p53: both p21 and p53 were concentrated in the nucleus
[4]
  Nuclear localization of pRb: induced nuclear localization of the tumor suppressor gene protein, pRb
[5]
  Kp at 2 h: 5
[6]
  AUC(0-inf): 12300 ng·h/mL
[7]
  Phosphorylation state of pRb (Western blot): induces dephosphorylation of pRb in both cytoplasmic and nuclear fractions
[8]
  Nuclear localization of APC and IκB: induced the nuclear localization of the tumor suppressor proteins, APC and IκB
[9]
  Number of splenocytes and circulating CD8 cells (FACS): modest decrease in the number of splenocytes and circulating CD8 cells
[10]
  EAE clinical score: reduced the clinical score in a statistically significant manner
[11]; 25 or 75 mg/kg QDx5 SC, HCT-116 xenograft mice
  Tumor growth (tumor volume as percentage of initial volume): inhibited tumor growth
[11]; vs 50 mg/kg 5-FU IP days 1-3
  Anti-tumor effect compared to 5-FU: superior anti-tumor effects compared to 5-FU
[12]; 2-24 hours
  Induction of p21 and p53 (Western blot): induces p21 and p53 in both cytoplasmic and nuclear fractions
[12]; 24 hours
  Induction of apoptosis (PARP decrease, cleaved PARP increase): induces apoptosis in HCT-116 cells after 24 hours
[2]
  EC50 at 72 h: < 1000 nM

## O=C(/C=C\n1cnc(-c2cc(C(F)(F)F)cc(C(F)(F)F)c2)n1)NC1C2CNCC21 (stereo not drawn) [Compound 56, (Z)—N-(3-azabicyclo[3.1.0]hexan-6-yl)-3-(3-(3,5-bis(trifluoromethyl)phenyl)-1H-1,2,4-triazol-1-yl)acrylamide hydrochloride]
[1]
  IC50: < 1000 nM
[2]
  EC50 at 72 h: < 1000 nM
